Experimental data taken from a melting point compilation (Tetko et al.; mined from patent text by program, amines drawn as free bases though some values may be those of a salt).

Row | SMILES | melting point
1 | O=C(Cc1ccc(F)cc1)Nc1cccc2nc(N[C@@H]3CCc4ccccc43)ccc12 | 207 °C
2 | COCCOc1cc(OC)c2c(=O)[nH]c(-c3cc(C)nc(C)c3)nc2c1 | 229 to 230 °C
3 | CCOC(=O)c1cccc(N2C(=O)C=CC2=O)c1C(=O)OCC | 86 to 90 °C
4 | O=C(O)CCc1cn(Cc2ccc(OCc3ccccc3)cc2)cc1-c1ccccc1 | 130 to 131 °C
5 | COC(=O)c1ccc(Cn2c(=O)c(C)c3sc(C(=O)NCc4ccc(F)cc4)cn3c2=O)cc1Cl | 176 to 178 °C
6 | FC(F)(F)Oc1ccc(-c2nccc(Cl)n2)cc1 | 70 to 73 °C
7 | O=C1C2CN(CCc3ccc(Cl)cc3)CC2C(=O)N1c1cc(Cl)cc(Cl)c1 (stereo not given) | 115 °C
8 | CC(C)(C)OC(=O)C1CCCNN1C(=O)C(CCC(=O)O)N1C(=O)c2ccccc2C1=O (stereo not given) | 132 to 134 °C
9 | CC(C)c1ccnc(C(=O)c2[nH]c3cc(Cl)ccc3c2CC(=O)O)c1 | 194 to 196 °C
10 | N#CC(C#N)=C1Sc2nc3cc(Cl)c([N+](=O)[O-])cc3nc2S1 | 297 to 299 °C
11 | COc1cccc([C@H]2O[C@H](CC(=O)N[C@@H](C)C(=O)O)C(=O)N(CC(C)(C)CO)c3ccc(Cl)cc32)c1OC | 133 to 135 °C
12 | CC(=O)Nc1c[nH]c(=S)n1C1CCc2ccccc2C1 (stereo not given) | 196 to 200 °C
13 | Cc1c(-c2ccccc2)c(N2CCC(N(C)C)C2)c2oc(C(C)(C)CO)nc2c1C#N (stereo not given) | 175 to 178 °C
14 | CCC(Oc1c(Br)cccc1Br)C(=O)OC1CC(O)C=C2C=CC(C)C(CCC3CC(O)CC(=O)O3)C21 (mixture of isomers) | 114 to 116 °C
15 | C=C(C)OC(=O)N1c2cnccc2NC(=O)C1C (racemic) | 236 °C
16 | CCOC(=O)C(=CNc1scc(C)c1C(=O)OC)C(=O)OCC | 106 °C
17 | Cc1c(Br)cccc1N1Cc2ccc(C(C)(C)C)cc2C1=O | 120 to 122 °C
18 | NC(=O)NC[C@@H]1CCCc2cc(Sc3cccc(F)c3)cc(F)c21 | 131 to 132 °C
19 | Cc1cc(Nc2cc(-c3cccc(N4CCc5c(cc6n5CCCC6)C4=O)c3CO)cn(C)c2=O)n[nH]1 | 199 to 200 °C
20 | C[C@H](Cc1cc2c(c(C(N)=O)c1)N(CCCCOCc1ccccc1)CC2)NCCOc1ccccc1OCC(F)(F)F | 101 to 102 °C
21 | CN(C(=O)Nc1nc(OCC(F)(F)F)cc(OCC(F)(F)F)n1)c1ccc(OC(F)(F)F)cc1 | 100 to 102 °C
22 | Cc1csc2ccc3[nH]c4c(c3c12)CN(CCCN(C)C)CC4 | 184 °C
23 | O=C1OCCC1=Cc1ccccc1OCC(O)CN1CCC(c2ccc(Cl)c(F)c2)CC1 (stereo not given) | 114 to 115 °C
24 | CCCCSc1cc(C(=O)O)cc(N)c1Oc1ccccc1 | 131 to 132 °C

Row | SMILES | melting point
25 | CCCN(CCC)S(=O)(=O)c1cccc(C2(O)CCC(=O)N2C)c1 (stereo not given) | 58 to 60 °C
26 | Cc1cc(SCc2ccc(-c3ccc(C(F)(F)F)cc3)cc2)c2c(c1OCC(=O)O)CCC2 | 177 °C
27 | Cc1nn(-c2c(Cl)cc(C(F)(F)F)cc2Cl)c(N)c1SC(Cl)(Cl)Cl | 156 °C
28 | CCOC(=O)c1c(C(F)(F)F)nc(C(F)(F)Cl)c(C(=O)OC)c1N | 69 to 70 °C
29 | Cc1ccc(C(=O)[C@@](O)(C(=O)O)[C@H](O)C(=O)O)cc1 | 126 to 130 °C
30 | CC(C)c1nc2cc(NC(=O)c3c(C(=O)N4CCCC4)cnn3C)ccn2n1 | 141 to 143 °C
31 | COc1cccc(Cc2nc3n(-c4c(Cl)cc(Cl)cc4Cl)[nH]c(C(C)C)c-3c(=O)n2)c1 | 204 to 205 °C
32 | CC1(C)N=C(c2ccccc2F)c2cc(N)ccc2NC1=O | 203 °C
33 | CC(C)CC(O)c1cccc(NC(=O)OCc2ccccc2)c1 (stereo not given) | 73 to 77 °C
34 | CC(=O)OC1CN(c2c(F)cc3c(=O)c(C(=O)O)cn(C4CC4)c3c2F)C1 | 259 to 262 °C
35 | CCCCO[PH](=O)Cc1cc(C(C)(C)C)c(O)c(C(C)(C)C)c1 (stereo not given) | 85 to 87 °C
36 | CN(C)CCCn1cc(C2=C(c3c[nH]c4ccccc34)C(=O)N(C)C2=O)c2ccccc21 | 86 to 90 °C
37 | COc1cc(OCc2ccccn2)ccc1/C=C/c1cc(/C=C/c2ccc3cc[nH]c3c2)n[nH]1 | 237 to 239 °C
38 | Cc1c(C)c(Br)c2c(c1C)C(=O)C(C)(C)O2 | 145 to 146 °C
39 | Cc1sc2cc3ccccc3c(-c3ccc(OS(=O)(=O)c4ccc(C(=O)O)c(O)c4)c(C4CCCC4)c3)c2c1C | 230 to 237 °C
40 | CN(C(=O)N(CF)CF)c1nc2ccccc2s1 | 131 to 134 °C
41 | COc1ccc(-c2cc(=O)c3ccc(OCC4CO4)cc3o2)cc1OC (stereo not given) | 148 to 149 °C
42 | CCC(c1ccccc1)c1c(O)c2c(oc1=O)CCC2 (stereo not given) | 183 to 186 °C
43 | COc1cc(Nc2c(C#N)cnc3cc(-c4ccc(CNCCS(=O)(=O)c5ccccc5)cc4)ccc23)c(Cl)cc1Cl | 198 to 201 °C
44 | Cc1ccccc1COc1cccnc1NC(=N)Nc1ccc(Cl)cc1 | 158 to 159 °C
45 | Fc1ccc(-n2nccc2-c2ccnc(NCc3ccccc3)c2)cc1 | 125 to 127 °C
46 | CN(C)c1ccc(C2(C#N)CCCC2)cc1 | 73 to 74 °C
47 | O=C1NCCN1Cc1ccc(OCc2ccccc2)cc1 | 110 to 122 °C
48 | O=C1CCOc2cc(OCCn3ccnc3)ccc21 | 128 to 130 °C

Row | SMILES | melting point
49 | COc1ccc(-c2nnc(Nc3ccc(Cl)c(Cl)c3)s2)cc1OCc1ccccc1 | 223 to 224 °C
50 | CC1(C)OC(=O)Nc2ccc(-c3cncc(C#N)c3)cc21 | 290 to 291 °C
51 | O=C(O[C@@H]1CCN(CC#CCN2CCCC2)C1=O)c1ccc([N+](=O)[O-])cc1 | 89 to 90 °C
52 | CC(=O)Nc1cnn2c1-c1ccccc1N(NC(C)=O)C2(C)C | 229 to 230 °C
53 | CN1Cc2c(C#N)ncn2-c2sccc2C1=O | 197 to 200 °C
54 | CCn1cc(C(=O)O)c(=O)c2cc(F)c(N3CCN(C)C(C)C3)cc21 (stereo not given) | 244 to 246 °C
55 | CNc1cc(CC(C#N)=CNc2ccccc2)cc(NC)c1Cl | 142 to 147 °C
56 | CNNC(=O)c1ccc(Cl)cc1 | 130 to 131 °C
57 | Cn1ncc2[nH]c3c(F)cccc3c(=O)c21 | > 300 °C
58 | O=S(=O)(Oc1ccc(C(c2ccc(OS(=O)(=O)c3ccccc3)cc2)(C(F)(F)F)C(F)(F)F)cc1)c1ccccc1 | 133 to 134 °C
59 | O=C(Nc1cccc(S(=O)(=O)NCc2ccncc2)c1)c1cnn2c(C(F)F)cc(-c3ccc(C(F)(F)F)cc3)nc12 | 221 °C
60 | N#Cc1nn(-c2c(Cl)cc(C(F)(F)F)cc2Cl)cc1C(=O)C(F)(F)F | 124 to 125 °C
61 | CC1(CN2CCN(c3ccc(C(F)(F)F)cc3)CC2)Cn2cc([N+](=O)[O-])nc2O1 (stereo not given) | 159 to 160 °C
62 | CCCC12CCC(=O)C=C1c1c(cc(OCC(=O)O)c(Cl)c1Cl)CC2 (stereo not given) | 193 to 194 °C
63 | O=S(=O)(C=Cc1ccccc1)On1nnc2ccccc21 | 102 to 103 °C
64 | CCOCc1nc2c(N)nc3ccccc3c2n1CCOCCCS(=O)(=O)N(C)C | 61 to 64 °C
65 | CCCc1c(OCc2c(C)ccn3c(=O)c(CC(=O)O)cnc23)ccc(C(C)=O)c1O | 191 to 193 °C
66 | Clc1ccc(NCCCNCC2CCc3ccccc3O2)nn1 (stereo not given) | 108 °C
67 | Cc1c(C)c(N2CCN(c3ccc(C(F)(F)F)cc3)CC2)c(C)c2c1OC(C)(C)C2=O | 188 to 190 °C
68 | COCc1nc(N2CCCCC2)ncc1C(=O)OC | 89 to 92 °C
69 | COc1cc2c(cc1OC)C(C=Cc1ccc(N)cc1)=NNC(C)C2 (stereo not given) | 152 to 154 °C
70 | CC(C#Cc1ccc(Oc2cccnc2)o1)N(O)C(N)=O (stereo not given) | 128 °C
71 | CS(=O)c1cc(Cl)c(C=O)c(Cl)c1 (stereo not given) | 100 to 102 °C
72 | O=C(Nc1nccs1)c1cnc2c(C(F)(F)F)cccc2c1O | 325 °C

Row | SMILES | melting point
73 | Cc1cc(C)cc(-n2c(C=CC3CC(O)CC(O)O3)c(C(C)C)c3ccccc3c2=O)c1 (mixture of isomers) | 180 to 182 °C
74 | O=[N+]([O-])c1ccc(OC(c2c(Cl)cccc2Cl)C(F)(F)F)cc1 (stereo not given) | 108 °C
75 | CCCCCCCCCCC1(CCCCCCCCCC)c2cc(C=Cc3ccncc3)ccc2-c2ccc(N(c3ccccc3)c3ccccc3)cc21 | 88.4 to 89.3 °C
76 | Cn1c(=O)ccn(C2C=CC(CO)O2)c1=O (stereo not given) | 203 to 204 °C
77 | CCOc1ccc(C(c2ccc(C(C)(C)C)cc2)C(C)Cl)cc1 (stereo not given) | 74 to 75 °C
78 | N#CC(C(=O)Nc1cccnc1)C(=O)c1nn(-c2ccccc2)c2c1COc1ccccc1-2 (stereo not given) | 280 to 282 °C
79 | CCOC(OCC)N1CCNC1=N[N+](=O)[O-] | 100 to 102 °C
80 | COc1cccc(NC(=O)C2=C(O)c3ccc4ccccc4c3S(=O)(=O)N2C)c1 | 242 to 244 °C
81 | O=C(c1ccc(O)cc1)c1sc2ccccc2c1-c1ccccc1 | 204 to 205 °C
82 | CCCCc1nc(O)c(CC(=O)O)c(=O)n1Cc1ccc(C(=O)O)cc1 | 260 °C
83 | COc1ccc(C=CC=O)cc1OC | 74 to 77 °C
84 | Cc1ccccc1C1SC2(CCN(CCCC(=O)c3ccc(F)cc3)CC2)c2ccccc21 (stereo not given) | 143 to 145 °C
85 | CC1OC(c2cc(-n3c(=O)cc(C(F)(F)F)n(C)c3=O)ccc2Cl)OC1C (stereo not given) | 149 to 151 °C
86 | CNC(=S)NS(=O)(=O)c1cc(CCNC(=O)c2cc(Cl)ccc2OC)ccc1-c1ccc(Cl)cc1 | 189 to 192 °C
87 | CC(=O)/C=C/Sc1ccc2ccccc2c1 | 62 to 64 °C
88 | COc1cc(CC(=O)O)c(C(=O)O)cc1OC | 217 to 219 °C
89 | CCN(CCc1c[nH]c2ccc(F)cc12)C1COc2c(F)ccc(C(=O)NC)c2C1 (stereo not given) | 125 °C
90 | COCCN1C(=O)C(C)(C)C(=O)Nc2ccc(C#N)cc21 | 247 to 248 °C
91 | Cc1nc(C(Cl)(Cl)Cl)nc(OC(=O)C(Cl)(Cl)Cl)c1Cl | 92 °C
92 | CC(C)OC(=O)C(O)C(CC1CCCCC1)NC(=O)C(Cc1c[nH]cn1)NC(=O)C(CC(=O)N1CCOCC1)Cc1cccc2ccccc12 (mixture of isomers) | 103 to 106 °C
93 | O=C(CCCCCNC(=O)c1ccccc1S)Nc1cccnc1 | 110 to 112 °C
94 | Cn1c(COc2ccc(CC3SC(=O)NC3=O)cc2)nc2ccc(Oc3cccc(NC(=O)Nc4ccc(F)cc4)c3)cc21 (stereo not given) | 169 to 171 °C
95 | CC(C)n1cc(C(=O)NCc2ccc(Cl)cc2)c(=O)c2cc(I)sc21 | 173 to 180 °C
